# “Also recorded” adds a separate entry of the source.
# Experiments:
# [1] = test system: NRF2; assay: NRF2/ARE Luciferase Reporter Assay (HEK293 stable cell line); assay type: cell-based, human; details: 6 hrs exposure to varying concentrations, relative to vehicle, normalized to total protein
# Experimental: NRF2/ARE Luciferase Reporter Assay NRF2 activity was monitored with a reporter cell line in which changes in NRF2 activity are coupled to the expression of firefly luciferase (NRF2/ARE Luciferase Reporter HEK293 Stable Cell Line). Luciferase activity was quantified with the Luciferase Assay System as per the manufacturer's instructions. Briefly, cells were plated at 125,000 cells/well in a 24-well plate. The following day, cells were treated with either vehicle or varying doses of sulforaphane, exemestane, or JQ-1 for 6 hours. Cells were then lysed in passive lysis buffer (Promega E1941) supplemented with protease inhibitors (Sigma). Lysates were then cleared at 16,000 g for 15 minutes at 4° C. 15 μL of each lysate was mixed with 5 μL of luciferase assay substrate (Promega). Total light was measured using a luminometer with a 10 second integration time with a delay of 2 seconds. Luciferase measurements were normalized to total protein and reported as normalized to the vehicle condition.
# [2] = test system: constrictive mouse model of trigeminal neuralgia; assay: Mechanical allodynia (Von Frey filament) after constriction of the maxillary nerve; assay type: in vivo; details: for mechanical allodynia (sensitivity to crude touch): WT mice, i.p. daily for two days before surgery and daily after behavior testing, sulforaphane, exemestane, letrozole 10 mg/kg, JQ-1 40 mg/kg, ascorbate 100 mg/kg, vs vehicle; for persistence of effects after treatment: daily i.p. dosing just after behavior testing
# Experimental: (§1) Constriction of the Maxillary Nerve Constriction of the maxillary division of trigeminal nerve was performed as previously described (See Benedetti, A., et al., Biochimica Et Biophysica Acta Bba—Lipids Lipid Metabolism 620, 281-296 (1980) and Vos, B., et al J Neurosci 14, 2708-2723 (1994)). The procedure was performed under direct visualization and control with a surgical microscope. Mice were first anesthetized with ketamine (100 mg/kg, i.p.) and xylazine (12.5 mg/kg, i.p.) and monitored by pinching the skin between the toes with forceps and monitoring for withdrawal. Mice were restrained with adhesive tape to a sterilized polystyrene board. Upon sufficient anesthesia, the scalp was shaved and an anterior to posterior skin incision was made at the midline to expose the nasal and maxillary bones. The maxillary nerve was exposed and carefully dissected free from the surrounding connective tissue. The distal end of the maxillary nerve was then loosely constricted using 8-0 silk sutures as a ligature. The sutures were tied using a slip knot followed by a normal knot, after which any remaining suture was cut free. The incision was then closed with a 4-0 silk suture. In the sham procedure, the left maxillary nerve was exposed but not constricted. Mice were monitored and rehydrated until fully recovered from anesthesia.
# (§2) Pharmacologic Treatments Mice were dosed with either sulforaphane (10 mg/kg, i.p.), exemestane (10 mg/kg, i.p.), letrozole (10 mg/kg, i.p.), (+)-JQ-1 (40 mg/kg, i.p.), (−)-JQ-1 (40 mg/kg, i.p.), or ascorbate (100 mg/kg, i.p.) as indicated below. Mice were first dosed daily for two days before surgery and again daily just after behavior testing. For local exemestane treatment, exemestane (5 μL, 25 μg total) was applied directly to the maxillary nerve. Mice received a single dose during surgery. Mice were dosed with AM-0902 (30 mg/kg, p.o.). Mice were treated with AM-0902 were dosed 30 min prior to behavior testing. Mice were dosed with tamoxifen (75 mg/kg, i.p.). Mice were dosed once every 24 hrs over 5 consecutive days. Behavioral and molecular tests were only performed 7 or more days after the final tamoxifen injection.
# Mechanical Allodynia Mechanical allodynia was assessed in C57BL/6J, TRPA1^+/+, TRPA1^−/−, Keap1(f/f), and Keap1(f/f/CMV-CreER mice using a Von Frey filament as previously outlined (See Benedetti, A., et al., Biochimica Et Biophysica Acta Bba—Lipids Lipid Metabolism 620, 281-296 (1980) and Vos, B., et al J Neurosci 14, 2708-2723 (1994)). Animals were placed individually in transparent plastic boxes and allowed to acclimate to the environment for at least 30 min before testing. After habituation, a 0.04 g force Von Frey filament was used to stimulate the territory innervated by the maxillary nerve, including the vibrissal skin pad. Each mouse's response to the filament was scored from 0-4 on the scale below. Each mouse was scored ten times per day. Changes in mechanical allodynia were considered relative to sham- or vehicle-treated animal controls. Behavior was assessed concomitantly or in a blocked manner with consideration for both genotype and treatment. • 0—no response • 1—non-defensive response to the stimulus (e.g., mouse non-defensively explores filament) • 2—withdrawal response (e.g., mouse turns head away from filament) • 3—escape/attack response (e.g., mouse moves body away from filament and assumes crouching position against the box wall; actively attacks filament by biting and/or grabbing) • 4—asymmetric face grooming (e.g., mouse wipes stimulated facial area in uninterrupted series of at least three face-wash strokes)
# [3] = test system: constrictive mouse model of trigeminal neuralgia; assay: Cold allodynia (ice-cold acetone) after constriction of the maxillary nerve; assay type: in vivo; details: for cold allodynia (ice-cold acetone): WT mice, i.p. daily for two days before surgery and daily after behavior testing, sulforaphane, exemestane, letrozole 10 mg/kg, JQ-1 40 mg/kg, ascorbate 100 mg/kg, vs vehicle
# Experimental: as §1, §2
# Cold Allodynia Cold allodynia was assessed in C57BL/6J, TRPA1^+/+, TRPA1^−/−, Keap1(f/f), and Keap1(f/f)/CMV-CreER mice using ice-cold acetone as previously outlined (See Yoon, C., et al., Pain 59, 369-376 (1994)). Animals were placed individually in transparent plastic boxes and allowed to acclimatize to the environment for at least 30 min before testing. After habituation, 20 μl of cold acetone was applied to the ligated vibrissal pad skin surface. Cold allodynia was measured as the average time spent wiping the region in a 60 s period, with a maximum of 5 seconds between bouts of wiping. Allodynia was measured three times with 10 min between intervals. Changes in cold allodynia were considered relative to sham- or vehicle-treated animal controls. Behavior was assessed concomitantly or in a blocked manner with consideration for both genotype and treatment.
# [4] = single local treatment, exemestane 25 μg/site applied directly to the maxillary nerve during surgery
Structure (SMILES),luciferase expression in the NRF2 reporter line [1],mechanical allodynia (sensitivity to crude touch) [2],persistence of effects after treatment [2] [h],cold allodynia (ice-cold acetone) [3],"duration of analgesic effect ([2]; mouse, in vivo)","mechanical allodynia [2, 4]","cold allodynia [3, 4]",mechanical allodynia (sensitivity to crude touch) ([2]; listed as (+)-JQ-1),cold allodynia (ice-cold acetone) ([3]; listed as (+)-JQ-1)
"C[S+]([O-])CCCCN=C=S (centres unmarked) [sulforaphane, 1-isothiocyanato-4-(methanesulfinyl)butane]",dose-dependently increased luciferase expression,less sensitive,24,less sensitive,–,–,–,–,–
"C=C1C[C@@H]2[C@H](CC[C@]3(C)C(=O)CC[C@@H]23)[C@@]2(C)C=CC(=O)C=C12 [exemestane, 6-methylenandrosta-1,4-diene-3,17-dione]",similarly increased luciferase expression,much less sensitive; also recorded: lowered,24,much less sensitive; also recorded: lowered,persists over the course of days to weeks,lessened,lessened,–,–
"Cc1sc2c(c1C)C(c1ccc(Cl)cc1)=N[C@@H](CC(=O)OC(C)(C)C)c1nnc(C)n1-2 [JQ-1, (S)-tert-butyl 2-(4-(4-chlorophenyl)-2,3,9-trimethyl-6H-thieno[3,2-f][1,2,4]triazolo[4,3-a][1,4]diazepin-6-yl)acetate]",did not stimulate luciferase expression,much less sensitive,24,much less sensitive,–,–,–,lowered,lowered

# Reference: patent US20250064846A1, “TREATMENT AND PREVENTION OF TRIGEMINAL NEURALGIA” (THE JOHNS HOPKINS UNIVERSITY, priority 2022, published 2025)
